The test system of assay [1] is IFNα-stimulated STAT-dependent luciferase reporter in Kit225 T cells. The assay can be described thus: Kit225 T cell assay, IFNα stimulated STAT-dependent luciferase reporter. In kind it is cell-based, human. The settings on record: Kit225 T cells, 200 U/mL human recombinant IFNα, 5-6 hours, luciferase; read-out: IFNα (Kit225 T Cell Inhibition Data). Summed up:
(§1)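 Stimulus was either 200 U/mL human recombinant IFNα or 20 ng/mL IL-23, applied for 5-6 h to reporter-bearing Kit225 T cells grown in RPMI/10% FBS. Luciferase expression then quantified by luminescent assay.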
A general note: In a reporter assay the amount or activity of a reporter protein is the signal.

Assay [2] has as its target T1, recombinantly expressed His-tagged protein corresponding to amino acids 575-869 of human Tyk2 (Homo sapiens, UniProt P29597).
T1 construct: corresponding to amino acids 575-869 of human Tyk2; made in house
The assay can be described thus: Probe displacement assay (scintillation proximity, [3H] probe). In kind it is binding. The settings on record: 2.5 nM Tyk2 (575-869), 40 nM radiolabeled probe, 30 minutes at room temperature. As for the experimental part:
The probe displacement assay is conducted as follows: In a […], test compounds along with recombinantly expressed His-tagged protein corresponding to amino acids 575-869 of human Tyk2 (sequence shown below) at 2.5 nM, 40 nM ((R)-N-(1-(3-(8-methyl-5-(methylamino)-8H-imidazo[4,5-d]thiazolo[5,4-b]pyridin-2-yl)phenyl)ethyl)-2-([^3H]methylsulfonyl)benzamide) (preparation described below) and 80 μg/mL Copper His-Tag scintillation proximity assay beads (Perkin Elmer, Catalog #RPNQ0095) in 50 mM HEPES, pH 7.5, containing 100 μg/mL bovine serum albumin and 5% DMSO were incubated for 30 minutes at room temperature. The amount of radiolabeled probe (preparation described below) bound to Tyk2 was then quantified by scintillation counting, and the inhibition by the test compound calculated by comparison to wells either with no inhibitor (0% inhibition) or without Tyk2 (100% inhibition).
Protein Sequence of recombinant Hig-tagged Tyk2 (575-869):
The preparation of radiolabeled probe, (R)-N-(1-(3-(8-methyl-5-(methylamino)-8H-imidazo[4,5-d]thiazolo[5,4-b]pyridin-2-yl)phenyl)ethyl)-2-([^3H]methylsulfonyl)benzamide, was performed as described below: […]

In assay [3] the test system is IL-23-stimulated STAT-dependent luciferase reporter in Kit225 T cells. In words: Kit225 T cell assay, IL-23 stimulated STAT-dependent luciferase reporter. The class given is cell-based, human. The settings on record: Kit225 T cells, 20 ng/mL human recombinant IL-23, 5-6 hours, luciferase; read-out: IL23 (Kit225 T Cell Inhibition Data). An outline of the steps: as §1

SMILES strings stand for the structures.

This passage reports IC50 and EC50 results from patent US9315494B2, “Alkyl-amide-substituted pyridyl compounds useful as modulators of IL-12, IL-23 and/or IFNα responses” (Bristol-Myers Squibb Company, priority 2012, dated 2016).

T1 sequence (P29597 575-869): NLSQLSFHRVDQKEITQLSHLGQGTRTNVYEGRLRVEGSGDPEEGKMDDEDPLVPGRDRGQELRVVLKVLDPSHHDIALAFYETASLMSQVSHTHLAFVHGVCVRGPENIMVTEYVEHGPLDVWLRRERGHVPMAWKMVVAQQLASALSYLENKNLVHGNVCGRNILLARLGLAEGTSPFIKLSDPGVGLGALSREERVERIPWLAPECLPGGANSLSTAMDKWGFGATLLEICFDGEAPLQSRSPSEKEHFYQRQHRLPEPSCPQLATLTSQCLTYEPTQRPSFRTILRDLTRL

For orientation: EC50 means the concentration giving half of the maximal effect. On to `CNC(=O)c1cnc(Nc2ccc3ccccc3n2)cc1NC1CCCC1C(N)=O` (stereo not drawn) [Example 289], for which the IC50 in assay [1] stood at 7300 nM; in assay [3], 12500 nM. For the same compound, the EC50 in assay [2] is 495 nM.

In the case of `[2H]C([2H])([2H])NC(=O)c1cnc(Nc2ccc(F)cn2)cc1Nc1ccccc1S(C)(=O)=O` [Example 298], the figures for the IC50 in assay [1] and in assay [3] were 60 nM and 110 nM, respectively. In addition, the EC50 in assay [2] was 6.5 nM.

`CNC(=O)c1cnc(Nc2ccc(F)cn2)cc1Nc1ccccc1S(=O)(=O)N(C)C` [Example 302]: the values for the IC50 in assay [1] and in assay [3] were 2090 nM and 4060 nM, respectively. Further, the EC50 in assay [2] stood at 182 nM.

As for `CNC(=O)c1cnc(Nc2ccc(F)cn2)cc1Nc1cccc(C(N)=O)c1OC` [Example 315, 4-((3-carbamoyl-2-methoxyphenyl)amino)-6-((5-fluoropyridin-2-yl)amino)-N-methylnicotinamide], the values for the IC50 in assay [1] and in assay [3] were 80 nM and 90 nM, respectively. In assay [2], the EC50 came to 5 nM.

For the compound `CNC(=O)c1cnc(Nc2cc(C)c(F)cn2)cc1Nc1cccc(C(=O)NCC2CCCCC2)c1OC` [Example 325], the IC50 in assay [1] turned out to be 210 nM; in assay [3] it was 460 nM. The EC50 in assay [2] came to 76.4 nM.

Take `CNC(=O)c1cnc(Nc2cc(C)c(F)cn2)cc1Nc1cccc(C(=O)NCc2ccccn2)c1OC` [Example 327]: the IC50 in assay [1] was determined as 10 nM; in assay [3], 100 nM. Moreover, in assay [2], the EC50 came to 15.3 nM.

For `CCC(CC)CNC(=O)c1cccc(Nc2cc(Nc3cc(C)c(F)cn3)ncc2C(=O)NC)c1OC` [Example 334], the IC50 in assay [1] is 230 nM; in assay [3], 310 nM. Further, the EC50 in assay [2] came to 14 nM.

As to `CNC(=O)c1cnc(Nc2cc(C)c(F)cn2)cc1Nc1cccc(C(=O)NCc2nccs2)c1OC` [Example 345], the IC50 in assay [1] and in assay [3] was 30 nM each time. Further, the EC50 in assay [2] came to 10.5 nM.

Regarding `CNC(=O)c1cnc(Nc2cc(C)c(F)cn2)cc1Nc1cccc(C(=O)NCCF)c1OC` [Example 356], the IC50 was 80 nM in assay [1] and 120 nM in assay [3]. For the same compound, the EC50 in assay [2] stood at 2.6 nM.

`CNC(=O)c1cnc(Nc2cc(C)c(F)cn2)cc1Nc1cccc(-c2nnco2)c1OC` [Example 358]: the IC50 is 10 nM in assay [1] and 9.98 nM in assay [3]. Besides, the EC50 in assay [2] is 5.3 nM.

On to `CNC(=O)c1cnc(Nc2cc(C)n(C)n2)cc1Nc1cccc(-c2nnc[nH]2)c1OC` [Example 363], for which the values for the IC50 in assay [1] and in assay [3] were 40 nM and 70 nM, respectively. In addition, the EC50 in assay [2] came to 4.7 nM.

As to `CNC(=O)c1cnc(Nc2cc(C)nc(C)n2)cc1Nc1cccc(-c2nnc(C)[nH]2)c1OC` [Example 365], the IC50 in assay [1] and in assay [3] was 10 nM each time. Also, the EC50 in assay [2] worked out at 4.8 nM.

With `CCn1cnc(-c2cccc(Nc3cc(Nc4cc(C)nc(C)n4)ncc3C(=O)NC)c2OC)n1` [Example 382], the IC50 stood at 5.07 nM in assay [1] and 10 nM in assay [3]. The EC50 in assay [2] was 4.6 nM.

As to `CCn1ncnc1-c1cccc(Nc2cc(Nc3cc(C)nc(C)n3)ncc2C(=O)NC)c1OC` [Example 383], the IC50 in assay [1] is 20 nM; in assay [3], 100 nM. Further, the EC50 in assay [2] amounted to 6.1 nM.

In the case of `CNC(=O)c1cnc(Nc2cc(C)c(F)cn2)cc1Nc1cccc(-c2nc[nH]n2)c1OC(F)F` [Example 387], the IC50 in assay [1] was 120 nM; in assay [3], 280 nM. In addition, the 50% effective concentration (EC50) in assay [2] is 4.6 nM.

For the compound `CNC(=O)c1cnc(Nc2cc(C)c(F)cn2)cc1Nc1cccc(-c2ccn(C)n2)c1OC` [Example 391], the IC50 turned out to be 10 nM in assay [1] and 9.66 nM in assay [3]. In addition, the EC50 in assay [2] is 6 nM.

Consider `CNC(=O)c1cnc(Nc2cc(C)nc(C)n2)cc1Nc1cccc(-c2ccn(C)n2)c1OC` [Example 393], for which the IC50 came to 2.86 nM in assay [1] and 5.83 nM in assay [3]. Further, in assay [2], the EC50 came to 3.5 nM.

Consider `CNC(=O)c1cnc(Nc2cc(C)nc(C)n2)cc1Nc1cccc(-c2cnn(C)c2)c1OC` [Example 395], for which the figures for the IC50 in assay [1] and in assay [3] were 20 nM and 30 nM, respectively. In addition, the EC50 in assay [2] was 3.1 nM.

As for `CNC(=O)c1cnc(Nc2cc(C)c(F)cn2)cc1Nc1cccc(-c2cnn(C)c2)c1OC` [Example 396], the IC50 in assay [1] was 60 nM; in assay [3] it was 110 nM. The concentration giving a half-maximal response (EC50) in assay [2] came out at 6.5 nM.

For the compound `CNC(=O)c1cnc(Nc2cc(C)nc(C)n2)cc1Nc1cc(F)cc(F)c1OC` [Example 409], the IC50 in assay [1] turned out to be 20 nM; in assay [3], 40 nM. Also, the EC50 in assay [2] amounted to 6.3 nM.

As for `CCc1cc(Nc2cc(Nc3ccccc3S(C)(=O)=O)c(C(=O)NC)cn2)ncn1` [Example 420], the values for the IC50 in assay [1] and in assay [3] were 120 nM and 80 nM, respectively. The EC50 in assay [2] was 3 nM.

With `CNC(=O)c1cnc(Nc2cc(OC(C)C)ncn2)cc1Nc1ccccc1S(C)(=O)=O` [Example 422], the IC50 in assay [1] was found to be 180 nM; in assay [3] it was 310 nM. Further, in assay [2], the EC50 came out at 5.7 nM.

Take `CNC(=O)c1cnc(Nc2ccc(F)cn2)cc1Nc1ccccc1N(C)S(C)(=O)=O` [Example 426]: the IC50 in assay [1] and in assay [3] was 10 nM throughout. The EC50 in assay [2] is 4.2 nM.

Regarding `[2H]C([2H])([2H])NC(=O)c1cnc(Nc2cc(C)c(C#N)c(C)n2)cc1Nc1ccccc1S(C)(=O)=O` [Example 438], the IC50 in assay [1] was 80 nM; in assay [3], 150 nM. In addition, the EC50 in assay [2] was found to be 11.5 nM.

Take `[2H]C([2H])([2H])NC(=O)c1cnc(Nc2ccc(C)nn2)cc1Nc1cccc(-c2csc(C)n2)c1OC` [Example 448]: the IC50 stood at 17 nM in assay [1] and 11 nM in assay [3]. The EC50 in assay [2] was 8 nM.

As to `[2H]C([2H])([2H])NC(=O)c1cnc(Nc2ccccn2)cc1Nc1cccc(-c2ncc(F)cn2)c1OC` [Example 449], the IC50 in assay [1] was determined as 10 nM; in assay [3], 20 nM. In assay [2], the EC50 is 1.1 nM.

For `[2H]C([2H])([2H])NC(=O)c1cnc(Nc2cc(C(C)(C)O)ccn2)cc1Nc1cccc(-c2ncc(F)cn2)c1OC` [Example 450], the IC50 in assay [1] turned out to be 10 nM; in assay [3], 20 nM. The EC50 in assay [2] was found to be 7.3 nM.
